Test results from ChEMBL document CHEMBL2021760, “4-(1-Phenyl-1H-pyrazol-4-yl)quinolines as novel, selective and brain penetrant metabotropic glutamate receptor 4 positive allosteric modulators” (Bioorg Med Chem Lett, 2012).
In brackets after ≈: the same amount, converted by molar mass.

How the values were obtained:
[1] = target: T1, Metabotropic glutamate receptor 4 (Homo sapiens, UniProt Q14833); assay: Positive allosteric modulation of human mGlu4 receptor expressed in BHK cells assessed as potentiation of glutamate-induced calcium mobilization by FLIPR analysis; type: functional, cell-based
T1 sequence (Q14833 whole entry): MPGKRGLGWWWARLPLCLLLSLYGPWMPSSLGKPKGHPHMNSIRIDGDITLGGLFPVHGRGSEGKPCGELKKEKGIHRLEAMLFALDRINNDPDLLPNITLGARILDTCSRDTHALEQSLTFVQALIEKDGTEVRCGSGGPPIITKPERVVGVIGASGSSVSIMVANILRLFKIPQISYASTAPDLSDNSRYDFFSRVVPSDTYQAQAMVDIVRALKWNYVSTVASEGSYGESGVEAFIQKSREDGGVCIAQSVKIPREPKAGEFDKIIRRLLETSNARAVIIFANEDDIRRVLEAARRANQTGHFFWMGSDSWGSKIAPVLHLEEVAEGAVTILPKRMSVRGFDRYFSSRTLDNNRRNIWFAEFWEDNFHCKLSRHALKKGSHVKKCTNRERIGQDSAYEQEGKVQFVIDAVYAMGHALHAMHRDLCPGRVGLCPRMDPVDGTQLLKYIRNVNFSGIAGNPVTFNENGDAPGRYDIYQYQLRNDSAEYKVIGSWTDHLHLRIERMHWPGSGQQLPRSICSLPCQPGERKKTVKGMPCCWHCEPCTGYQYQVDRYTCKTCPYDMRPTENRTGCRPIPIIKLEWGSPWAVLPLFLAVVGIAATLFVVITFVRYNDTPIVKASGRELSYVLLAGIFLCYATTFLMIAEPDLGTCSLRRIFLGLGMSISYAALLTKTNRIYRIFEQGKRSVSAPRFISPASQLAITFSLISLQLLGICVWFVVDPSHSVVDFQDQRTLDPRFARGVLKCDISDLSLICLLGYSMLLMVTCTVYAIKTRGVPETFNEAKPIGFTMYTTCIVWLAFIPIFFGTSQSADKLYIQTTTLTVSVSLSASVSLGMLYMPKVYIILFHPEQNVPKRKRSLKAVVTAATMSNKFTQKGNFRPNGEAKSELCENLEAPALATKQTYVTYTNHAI

[2] = target: T1, Metabotropic glutamate receptor 4; assay: Positive allosteric modulation of human mGlu4 receptor expressed in BHK cells assessed as potentiation of glutamate-induced calcium mobilization by FLIPR analysis relative to PHCCC; type: functional, cell-based
[3] = target: T1, Metabotropic glutamate receptor 4; assay: Positive allosteric modulation of human mGlu4 receptor expressed in BHK cells assessed as fold shift in calcium mobilization by FLIPR analysis relative to glutamate; type: functional, cell-based
CYP3A4 = CYP3A4 (Homo sapiens, UniProt P08684); assay: Inhibition of CYP3A4 at 5 uM; type: ADME
Chain of CYP3A4 (P08684 whole entry): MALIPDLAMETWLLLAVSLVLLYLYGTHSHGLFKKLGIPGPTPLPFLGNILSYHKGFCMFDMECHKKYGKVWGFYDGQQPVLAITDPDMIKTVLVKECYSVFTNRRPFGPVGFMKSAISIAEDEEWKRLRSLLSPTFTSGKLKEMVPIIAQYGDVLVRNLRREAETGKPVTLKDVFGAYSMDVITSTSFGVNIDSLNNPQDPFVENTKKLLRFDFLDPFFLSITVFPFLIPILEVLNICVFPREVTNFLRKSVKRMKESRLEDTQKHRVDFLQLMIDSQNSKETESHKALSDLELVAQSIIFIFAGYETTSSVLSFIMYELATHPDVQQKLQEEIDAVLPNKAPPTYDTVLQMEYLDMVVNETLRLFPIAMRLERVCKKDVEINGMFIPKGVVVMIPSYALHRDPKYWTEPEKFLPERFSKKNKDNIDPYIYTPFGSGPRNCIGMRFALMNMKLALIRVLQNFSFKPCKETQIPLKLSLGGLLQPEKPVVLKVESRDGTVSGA

CYP2C9 = CYP2C9 (Homo sapiens, UniProt P11712); assay: Inhibition of CYP2C9 at 5 uM; type: ADME
Chain of CYP2C9 (P11712 whole entry): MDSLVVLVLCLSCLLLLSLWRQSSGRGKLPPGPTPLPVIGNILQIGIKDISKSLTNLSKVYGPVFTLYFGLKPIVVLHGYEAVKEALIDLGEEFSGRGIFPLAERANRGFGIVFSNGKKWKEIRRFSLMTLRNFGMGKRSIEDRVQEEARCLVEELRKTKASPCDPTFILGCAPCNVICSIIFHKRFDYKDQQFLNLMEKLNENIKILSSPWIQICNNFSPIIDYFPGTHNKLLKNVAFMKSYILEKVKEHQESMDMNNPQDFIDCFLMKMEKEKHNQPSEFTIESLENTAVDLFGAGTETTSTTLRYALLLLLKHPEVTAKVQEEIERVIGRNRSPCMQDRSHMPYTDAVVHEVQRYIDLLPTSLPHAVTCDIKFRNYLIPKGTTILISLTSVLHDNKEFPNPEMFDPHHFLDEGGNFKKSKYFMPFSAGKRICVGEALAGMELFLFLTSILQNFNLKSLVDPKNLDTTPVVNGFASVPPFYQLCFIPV

CYP2B6 = target: T2, CYP2B6 (Homo sapiens, UniProt P20813); assay: Inhibition of CYP2B6 at 5 uM; type: ADME
T2 sequence (P20813 whole entry): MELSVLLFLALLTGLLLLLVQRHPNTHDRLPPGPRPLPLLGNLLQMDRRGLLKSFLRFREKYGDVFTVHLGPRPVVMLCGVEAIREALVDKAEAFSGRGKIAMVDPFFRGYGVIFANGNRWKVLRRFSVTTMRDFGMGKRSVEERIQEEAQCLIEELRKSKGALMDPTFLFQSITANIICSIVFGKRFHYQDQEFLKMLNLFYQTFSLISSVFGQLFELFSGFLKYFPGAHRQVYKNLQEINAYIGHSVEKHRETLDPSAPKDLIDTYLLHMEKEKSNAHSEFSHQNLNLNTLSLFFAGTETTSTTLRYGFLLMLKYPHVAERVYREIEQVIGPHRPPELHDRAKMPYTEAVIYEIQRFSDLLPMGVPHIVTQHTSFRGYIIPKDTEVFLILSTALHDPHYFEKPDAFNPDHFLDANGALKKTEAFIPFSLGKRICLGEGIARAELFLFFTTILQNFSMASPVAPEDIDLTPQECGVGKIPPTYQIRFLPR

[4] = Kinetic solubility of the compound at pH 7.4; type: physicochemical; conditions: buffer, read-out: Kinetic_solubility
[5] = Kinetic solubility of the compound at pH 4.0; type: physicochemical; conditions: buffer, read-out: Kinetic_solubility
[6] = Plasma protein binding in rat; type: ADME, cell-free; conditions: read-out: PPB (converted)
Brain [7] = assay: Fraction unbound in rat brain; type: ADME, tissue-based
Rattus norvegicus = species: Rattus norvegicus; assay: Intrinsic clearance in rat; type: ADME, organism-based; conditions: in vivo
CYP2C19 = CYP2C19 (Homo sapiens, UniProt P33261); assay: Inhibition of CYP2C19 at 5 uM; type: ADME
Chain of CYP2C19 (P33261 whole entry): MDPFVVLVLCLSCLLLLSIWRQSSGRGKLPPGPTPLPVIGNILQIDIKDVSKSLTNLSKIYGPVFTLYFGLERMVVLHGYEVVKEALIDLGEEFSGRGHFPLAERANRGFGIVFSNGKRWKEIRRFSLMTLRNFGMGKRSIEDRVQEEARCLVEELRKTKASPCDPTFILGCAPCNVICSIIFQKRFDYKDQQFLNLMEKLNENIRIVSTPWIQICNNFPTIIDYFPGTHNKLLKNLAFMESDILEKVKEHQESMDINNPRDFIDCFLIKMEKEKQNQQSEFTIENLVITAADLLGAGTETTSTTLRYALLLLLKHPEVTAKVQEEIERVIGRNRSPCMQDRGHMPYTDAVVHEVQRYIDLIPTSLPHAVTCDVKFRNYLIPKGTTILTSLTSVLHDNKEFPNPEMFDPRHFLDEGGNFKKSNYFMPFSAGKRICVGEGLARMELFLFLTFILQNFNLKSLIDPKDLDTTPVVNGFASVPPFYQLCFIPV

Brain [8] = assay: Drug uptake in rat brain at 10 mg/kg, po; type: ADME, organism-based; design: dose 10 mg/kg, route oral; conditions: in vivo
Plasma = assay: Plasma concentration in rat at 10 mg/kg, po; type: ADME, organism-based; design: dose 10 mg/kg, route oral; conditions: in vivo
Cerebrospinal fluid = assay: Drug uptake in rat CSF at 10 mg/kg, po; type: ADME, organism-based; design: dose 10 mg/kg, route oral; conditions: in vivo
[9] = Ratio of drug level in brain to plasma in rat at 10 mg/kg, po; type: ADME, organism-based; design: dose 10 mg/kg, route oral; conditions: read-out: BPR
[10] = Lipophilicity, log D of compound at pH 7.4; type: physicochemical; conditions: buffer

Compound | EC50 [1] [nM] | Emax [2] [%] | also measured
Cc1nn(-c2ccccc2)c(C)c1-c1ccnc2ccccc12 | 840 | 150 | 
CCN(CC)C(=O)Oc1ccc2c(-c3cnn(-c4ccccc4)c3)ccnc2c1 | 390 | 120 | Ratio [3]: 11.2; inhibition at 5 µM (CYP3A4): 35%; inhibition at 5 µM (CYP2C9): 88%; inhibition at 5 µM (CYP2B6): 61%; solubility kinetic [4]: 1.4 µM (≈ 0.541 µg/mL); solubility kinetic [5]: 190 µM (≈ 73.4 µg/mL); fraction unbound [6]: 0.012; Fu (Brain [7]): 0.4%; CL (Rattus norvegicus): 46 mL/min; inhibition at 5 µM (CYP2C19): 83%; Drug uptake (Brain [8]): 35 ng/g; Cp (Plasma): 23 ng/mL; Drug uptake (Cerebrospinal fluid): < 1 ng/mL; Kp [9]: 1.5
CN(C)C(=O)COc1ccc2c(-c3cnn(-c4ccccc4)c3)ccnc2c1 | > 10000 | 11 | 
COCCCOc1ccc2c(-c3cnn(-c4ccccc4)c3)ccnc2c1 | 250 | 88 | 
c1ccc(-n2cc(-c3ccnc4cc(OCCN5CCCCC5)ccc34)cn2)cc1 | 6000 | 71 | 
c1ccc(-n2cc(-c3c[nH]c4ccccc34)cn2)cc1 | 2500 | 44 | 
c1ccc(-n2cc(-c3ccnc4ccccc34)cn2)nc1 | 2100 | 92 | 
c1ccc(-n2cc(-c3ccnc4cc(OCCCN5CCCC5)ccc34)cn2)cc1 | > 10000 | 7 | 
c1ccc(COc2ccc3c(-c4cnn(-c5ccccc5)c4)ccnc3c2)cc1 | 640 | 110 | 
O=C(Oc1ccc2c(-c3cnn(-c4ccccc4)c3)ccnc2c1)N1CCCC1 | 500 | 120 | 
Cc1nn(-c2ccccc2)cc1-c1ccnc2ccccc12 | 480 | 130 | 
Fc1ccc2c(-c3cnn(-c4ccccc4)c3)ccnc2c1 | 730 | 120 | 
COc1ccc2c(-c3cnn(-c4ccccc4)c3)ccnc2c1 | 220 | 79 | logD [10]: 5; inhibition at 5 µM (CYP3A4): 35%; inhibition at 5 µM (CYP2B6): 35%; solubility kinetic [4]: 4.6 µM (≈ 1.39 µg/mL); solubility kinetic [5]: 120 µM (≈ 36.2 µg/mL); fraction unbound [6]: 0.002; Fu (Brain [7]): 0.1%; CL (Rattus norvegicus): 68 mL/min; Drug uptake (Brain [8]): 180 ng/g; Cp (Plasma): 220 ng/mL; Drug uptake (Cerebrospinal fluid): < 1 ng/mL; Kp [9]: 0.8
c1csc(-n2cc(-c3ccnc4ccccc34)cn2)c1 | 4300 | 52 | 
CN(C)C(=O)Oc1ccc2c(-c3cnn(-c4ccccc4)c3)ccnc2c1 | 950 | 82 | 
c1ccc(-n2cc(-c3ncnc4ccccc34)cn2)cc1 | 3500 | 35 | 
O=C(COc1ccc2c(-c3cnn(-c4ccccc4)c3)ccnc2c1)N1CCOCC1 | > 10000 | 17 | 
Oc1ccc2c(-c3cnn(-c4ccccc4)c3)ccnc2c1 | > 10000 | 4 | 
c1ccc(-n2cc(-c3ccnc4cc(OCCCN5CCOCC5)ccc34)cn2)cc1 | 2800 | 64 | 
FC(F)(F)c1ccc2c(-c3cnn(-c4ccccc4)c3)ccnc2c1 | 550 | 140 | 
CN(C)CCOc1ccc2c(-c3cnn(-c4ccccc4)c3)ccnc2c1 | > 10000 | 23 | 
COCCOc1ccc2c(-c3cnn(-c4ccccc4)c3)ccnc2c1 | 390 | 110 | 
